Laboratory results published in PMC10870435, “A novel complement C3 inhibitor CP40-KK protects against experimental pulmonary arterial hypertension via an inflammasome NLRP3 associated pathway” (Journal of Translational Medicine, 2024).

What was measured:
RAW264.7 cells = experiment: RAW264.7 macrophages, western blot of NLRP3 pathway after C3a; format: cell-based; details: n = 3 per group
Description: (§1) RAW264.7 cells were provided by the Hubei Key Laboratory of Genetics and Molecular Mechanism of Cardiologic Disorders, Huazhong University of Science and Technology (China), and cultured in DMEM containing 10% fetal bovine serum at 37 ℃ and 5% CO2. RAW264.7 cells were incubated with 50 nM C3a for 12 h and then were washed twice with PBS. The cells were incubated with serum-free DMEM for 12 h and the supernatants were collected. After pretreatment with 100 ng/ml of IL-1RA for 1 h, we added the supernatants from the control or C3a group to PASMCs respectively for 24 h.
Proteins were collected from the fresh frozen-rat lung tissues using RIPA lysis buffer. Protein concentration was quantified using a BCA reagent. Equal amounts of protein were electrophoretically separated on 10% SDS polyacrylamide gel, transferred to PVDF membranes, and probed with desired primary antibodies overnight at 4 °C. Membranes were then washed with TBST and incubated with anti-mouse IgG (1:5000) or anti-rabbit IgG (1:5000) horseradish peroxidase conjugated antibodies as indicated. Blots were developed with the enhanced chemiluminescence system. To compare and quantify levels of proteins, the density of each band was measured using Image J software. Equal loading for total cell or tissue lysates was determined by β-Actin western blot.

C3 = details: cited from earlier work
Description: The selective C3 inhibitor CP40 has been found therapeutically effective in various diseases, but has yet not been tested in the PAH model. In the current study, we applied the newly identified CP40 analog, CP40-KK, with two more lysine attached to the C terminus, in the MCT-induced PAH rat model.

[1] = test system: primary rat pulmonary arterial smooth muscle cells (PASMCs); experiment: PASMC proliferation with macrophage supernatant (EdU assay, western blot); format: cell-based; details: 24 h, n = 3 per group
Description: PASMCs were isolated from rat distal pulmonary arteries and then cultured in Dulbecco’s modified Eagle’s medium (DMEM) containing 20% fetal bovine serum as previously described.
Cells seeded in the 24-well plate were labeled with 10 μmol/L of EdU (Meilun, Dalian, China) for 2 h at 37 ℃. Subsequently, cells were fixed in 4% of paraformaldehyde for 20 min and incubated in phosphate-buffered saline (PBS) containing 0.5% of Triton- X100 for 15 min. After being washed three times with PBS, 150 μL of dying solution was applied per well for 30 min and nuclei staining with Hoechst 33,342 for 10 min away from light. The proliferating cells were labeled with green fluorescence, with a maximum excitation wavelength of 491 nm and a maximum emission wavelength of 518 nm for 488-Azide. The proliferative rate = EdU-positive cells/Hoechst-positive cells.
as §1, with “After pretreatment with 100 ng/ml of IL-1RA for 1 h, we added the supernatants from the control or C3a group to PASMCs respectively for 24 h.” left out

[2] = test system: MCT-induced rat PAH model; experiment: MCT-induced rat PAH model: hemodynamics, RV hypertrophy, vessel morphology; format: in vivo; details: single i.p. injection 40 mg/kg; control group 28.00 ± 3.55 mmHg; mean ± SEM; n = 6 per group; SEM
Description: In the current study, two animal experiments were conducted successively. 30 rats were randomly divided into two groups (control group and MCT group, n = 15 per group) in the first experiment. MCT group rats received a single intraperitoneally injection of MCT (40 mg/kg) on day 1 to induce PAH while control group rats received an equivoluminal saline injection intraperitoneally. For the second animal experiment, the rats were assigned into four groups (control group, MCT group, CP40-KK group, and MCT + CP40-KK group, n = 15 per group). The control group was given the same volume of saline subcutaneously while the CP40-KK group rats only received CP40-KK (2 mg/kg) by subcutaneous injection from day 15 to day 28 continuously. The rats in the MCT group and MCT + CP40-KK group were received a single intraperitoneally injection of MCT (40 mg/kg) on day 1 and subcutaneously injected with either an equal volume of saline or CP40-KK (2 mg/kg) at day 15 to day 28 continuously. The dose selection of MCT and CP40-KK in our study was established based on previous studies.
Four weeks after the MCT injection, the experimental rats were weighed and anesthetized by intraperitoneal injecting pentobarbital sodium (40 mg/kg). After being anesthetized, rats were fixed in the supine position. A 3F polyethylene catheter filling with heparin was introduced into the right ventricle (RV) through the right jugular vein and the right atrium. Right ventricle systolic pressure (RVSP) was assessed by a pressure transducer and PowerLab system (AD Instruments, Australia). Pressure recordings were measured over a 2 min period and analyzed with Powerlab Pro Software (AD Instruments, Australia). After the hemodynamic study, the rats were euthanized by an overdose of anesthesia, and their lungs and hearts were dissected for further evaluation. The dry weights of the RV and left ventricle (LV) + septum were measured to calculate the RV/(LV + S) ratio and the RV / body weight (RV/BW). The left lung was fixed in 4% paraformaldehyde, and the right lung was snap-frozen in liquid nitrogen and stored at − 80 °C for further analysis.
Fixed lung samples were further fixed in 4% buffered paraformaldehyde for 24 h, embedded in paraffin, and processed for sectioning at 5 μm thick. Hematoxylin and eosin (H&E) staining were performed on paraffin-fixed lung tissue slides. The percent medial wall thickness (WT%) and percent medial wall area (WA%) were used to assess the extent of pulmonary vascular remodeling. WT% = (external diameter − internal diameter)/(external diameter) × 100%; WA% = (external area − internal area)/external area × 100%. All data were obtained and analyzed in a blinded manner.

NC(N)=NCCC[C@H](NC(=O)COCC(c1ccccc1)c1ccccc1)C(=O)O.O=C(O)C(F)(F)F [C3aRa, SB290157 trifluoroacetate, reference compound]
cellular levels of NLRP3, cleaved-caspase-1, cleaved-IL1β and IL18 (RAW264.7 cells; RAW264.7 treated with C3a (50 nM), 1 mM C3aRa): reduced

CC[C@H](C)[C@H](N)C(=O)N[C@H]1CSSC[C@@H](C(=O)N[C@H](C(N)=O)[C@@H](C)O)NC(=O)[C@H](CCCNC(=N)N)NC(=O)[C@H](Cc2c[nH]cn2)NC(=O)[C@H](Cc2c[nH]cn2)NC(=O)CNC(=O)[C@H](Cc2c[nH]c3ccccc23)NC(=O)[C@H](CC(=O)O)NC(=O)[C@H](CCC(N)=O)NC(=O)[C@H](C(C)C)NC(=O)[C@H](C(C)C)NC1=O [compstatin]
species specificity of C3 binding (C3): can bind only primates but not rodent C3

IL-1RA: IL-1RA protein reagent (MedChemExpress HY-P72566), 100 ng/ml pretreatment of PASMCs
PCNA and Cyclin D1 expression in PASMCs ([1]; C3a-supernatant + IL-1RA vs C3a-supernatant + PBS, western blot): decreased
number of EdU-positive PASMCs increased by macrophage-conditioned media ([1]; C3a-supernatant, 100 ng/ml IL-1RA pretreatment 1 h): reversed

C3a: complement anaphylatoxin C3a protein used at 50 nM to stimulate macrophages
cleaved-IL1β production by macrophages (RAW264.7 cells; RAW264.7, C3a 50 nM): stimulated macrophages to produce cleaved-IL1β

C[C@H]1C(=O)O[C@@H]2CCN3CC=C(COC(=O)[C@](C)(O)[C@]1(C)O)[C@H]23 [MCT, Monocrotaline, reference compound]
RVSP after 4 weeks of MCT treatment [2]: 63.03 ± 4.19 mmHg
